Experimental data from BindingDB's records for doi:10.1021/acs.jmedchem.5b01840 (Norgine, 2016).
pKi: −log10 of the molar value.

Experiment: Antagonist activity at CCR9 receptor in human MOLT4 cells assessed as inhibition of CCl25-mediated cell migration preincubated for 30 mins followed CCL25 addition incubated for 2 hrs by ChemoTx plate system

Row | pKi | Structure (SMILES)
1 | 7.40 | CC(C)(C)c1ccc(S(=O)(=O)Nc2ccc(Cl)c3c2C(=O)N(Cc2cccc[n+]2[O-])C3=O)cc1 [US9969687, Compound 199]
2 | 7.04 | CC(C)(C)c1ccc(S(=O)(=O)Nc2ccc(Cl)c3c2C(=O)N(c2cccnc2F)C3=O)cc1 [US9969687, Compound 218]
3 | < 6.52 | Cc1ccc(N2C(=O)c3c(Cl)ccc(NS(=O)(=O)c4ccc(C(C)(C)C)cc4)c3C2=O)c(C)n1 [US9969687, Compound 224]
4 | 7.49 | COc1ncccc1N1C(=O)c2c(Cl)ccc(NS(=O)(=O)c3ccc(C(C)(C)C)cc3)c2C1=O [US9969687, Compound 183]
5 | 6.95 | COc1c(N2C(=O)c3c(Cl)ccc(NS(=O)(=O)c4ccc(C(C)(C)C)cc4)c3C2=O)ccc[n+]1[O-] [US9969687, Compound 194]
6 | 8.05 | CC(C)(C)c1ccc(S(=O)(=O)Nc2ccc(Cl)c3c2C(=O)N(c2ccccn2)C3=O)cc1 [US9969687, Compound 222]
7 | 7.72 | Cc1cccc(N2C(=O)c3c(Cl)ccc(NS(=O)(=O)c4ccc(C(C)(C)C)cc4)c3C2=O)n1 [US9969687, Compound 228]
8 | < 7.00 | CC(C)(C)c1ccc(S(=O)(=O)Nc2ccc(Cl)c3c2C(=O)N(Cc2ccncc2)C3=O)cc1 [US9969687, Compound 201]

Second part, the molecule before the results:

Row | Structure (SMILES) | pKi
9 | Cc1c(N2C(=O)c3c(Cl)ccc(NS(=O)(=O)c4ccc(C(C)(C)C)cc4)c3C2=O)ccc[n+]1[O-] [US9969687, Compound 176] | 7.62
10 | Cc1ncccc1N1C(=O)c2c(Cl)ccc(NS(=O)(=O)c3ccc(C(C)(C)C)cc3)c2C1=O [US9969687, Compound 175] | 7.85
11 | CC(C)(C)c1ccc(S(=O)(=O)Nc2ccc(Cl)c3c2C(=O)N(Cc2cccnc2)C3=O)cc1 [US9969687, Compound 64] | 6.45
12 | CC(C)(C)c1ccc(S(=O)(=O)Nc2ccc(Cl)c3c2C(=O)N(Cc2ccc[n+]([O-])c2)C3=O)cc1 [US9969687, Compound 65] | 7.42
13 | COc1ccncc1N1C(=O)c2c(Cl)ccc(NS(=O)(=O)c3ccc(C(C)(C)C)cc3)c2C1=O [US9969687, Compound 119] | 8.52
